In paper PMC12040169 (PLOS Biology, 2025):

Test: in vitro
Conditions: human, hela cells, % viability

| SMILES | viability at 28.5 h, 10 µM |
| --- | --- |
| O=C(NCCc1c[nH]cn1)Nc1cccc(C(F)(F)F)c1 [CBK269822] | 105% |
| O=C(O)c1ccc(Nc2ncnc3c2oc2ccccc23)cc1 [CBK269825C] | 92% |
| N#Cc1ccc(NC(=O)CCn2cnnn2)cc1 [CBK269832] | 91.4% |
| CC1CCN(S(=O)(=O)N2CCNCC2)CC1 [CBK269836C] | 91.5% |
| COc1ccccc1C(=O)NCCCc1nc2ccccc2[nH]1 [CBK269837] | 87.1% |
| COc1ccc(S(=O)(=O)N2CCN(C(=O)c3ccco3)CC2)c2ccccc12 [CBK269839] | 86.8% |
| Cn1c(SCCC(=O)O)nnc1-c1ccc2c(c1)OCO2 [CBK269842] | 92.6% |
| Cc1cc(Oc2ccccc2)nc(Oc2ccc(=O)n(-c3ccccc3)n2)n1 [CBK269843] | 106% |
| COc1ccccc1/C=C/CN1CCNC(=O)C1CC(=O)O (stereo not drawn) [CBK269845] | 100% |
| COc1ccc(N2CCN(CC(O)COc3ccc4c(C)cc(=O)oc4c3)CC2)cc1 (stereo not drawn) [CBK269847] | 86.5% |
| Clc1ccc(OCc2ccccc2)c(CNCc2ccccn2)c1 [CBK269850C] | 91.2% |
| Cc1c(Cc2ccccc2)sc(NC(=O)c2cccnc2)c1C(N)=O [CBK269851] | 101% |
| O=C(Nc1ccc(N2CCOCC2)c(Cl)c1)c1cccc(-n2cnnc2)c1 [CBK269853] | 95.6% |
| CC(=O)N1CCN(c2ccc(NC(=O)CSc3ccc(C)cc3)cc2)CC1 [CBK269854] | 95.6% |
| O=C(CCn1c(=O)oc2cc(Cl)ccc21)NCc1ccco1 [CBK269857] | 95% |
| N#Cc1c(SCC(=O)O)nc(-c2cccs2)c2c1CCCC2 [CBK269858] | 103% |
| COc1ccc(CNc2ccc(N3CCOCC3)c(C(=O)O)c2)c(OC)c1 [CBK269860] | 91.3% |
| O=C(O)CCC(=O)Nc1ccccc1C(=O)N1CCCCCC1 [CBK269863] | 86.3% |
| COCCNCc1cccc(OCc2ccccc2)c1 [CBK269864C] | 87.9% |
| CCOc1ccc(S(=O)(=O)N(C)CC(=O)N2CCN(C)CC2)cc1Cl [CBK269865] | 101% |
| COc1nc2ccccc2nc1CCC(=O)NCc1ccco1 [CBK269866] | 93.4% |
| CC(C)N(Cc1nc(-c2ccccc2)no1)C(=O)CCc1ccccc1 [CBK269867] | 109% |
| COc1cc(S(=O)(=O)NCCc2ccccc2)c(OC)cc1C [CBK269868] | 94.1% |

| SMILES | viability at 28.5 h, 10 µM |
| --- | --- |
| O=c1[nH]c(CSc2nnc(COc3ccccc3)o2)nc2ccccc12 [CBK269869] | 84.9% |
| COc1ccc(-c2nnn(C3CCNCC3)n2)cc1OC [CBK269870C] | 85.3% |
| CC1CN(Cc2nc3c(c(=O)[nH]c(=O)n3C)n2CCc2ccccc2)CC(C)O1 (stereo not drawn) [CBK269876] | 98.1% |
| COc1cc(CNCc2ccccn2)ccc1OCc1cccc(Cl)c1 [CBK269877C] | 94.7% |
| O=C(O)COc1ccc(S(=O)(=O)N2CCc3ccccc32)cc1 [CBK269882] | 102% |
| COc1ccc(-c2ccc(C#N)c(SCc3ccncc3)n2)cc1 [CBK269883] | 102% |
| COCC(=O)NC(C)c1nc2ccccc2n1Cc1ccccc1C (stereo not drawn) [CBK269885] | 88.1% |
| O=C(CSc1cnn[nH]1)Nc1cccc(C(F)(F)F)c1 [CBK269888] | 90.8% |
| COc1cccc(C(=O)Nc2ccc(-c3noc(-c4ccncc4)n3)cc2)c1 [CBK269892] | 93.4% |
| Cc1[nH]c2ccccc2c1C(=O)C(=O)Nc1ccc(C#N)cc1 [CBK269896] | 84.6% |
| COc1ccc(-c2noc(CNC(=O)Nc3ccccc3)n2)cc1OC [CBK269900] | 88.3% |
| Ic1cnn(Cc2nc(-c3ccccc3)no2)c1 [CBK269901] | 90.3% |
| CCN1CCN(c2ccc(C(=O)OC)cc2NC(=O)c2ccccc2C)CC1 [CBK269902] | 92.9% |
| O=C(CSc1cnn[nH]1)Nc1ccccc1F [CBK269903] | 101% |
| Cc1ccccc1-c1nc2ccc(NC(=O)CCC(=O)O)cc2o1 [CBK269904] | 93.4% |
| COc1ccc(OCCn2c(C(C)O)nc3ccccc32)cc1 (stereo not drawn) [CBK269905] | 93.2% |
| NC1=Nc2nc3ccccc3n2C(c2ccc3c(c2)OCO3)N1 (stereo not drawn) [CBK269906] | 85.7% |
| Cn1c(=O)[nH]c(=O)c2c1nc(CN1CCOCC1)n2CCc1ccccc1 [CBK269910] | 88% |
| CC(C(=O)NCCN1CCOCC1)N1c2cccc3cccc(c23)S1(=O)=O (stereo not drawn) [CBK269911] | 91.2% |
| Cc1cccnc1NC(=O)C1CCCN1S(=O)(=O)c1ccc(Cl)cc1 (stereo not drawn) [CBK269914] | 83.2% |
| O=C(NCCc1cccs1)Nc1ccccc1 [CBK269917] | 88.7% |
| O=c1[nH]c(CN2CCN(c3ncccn3)CC2)nc2ccccc12 [CBK269918] | 98.3% |
| CC(=O)Nc1ccc(NC(=O)CC2SCCNC2=O)cc1 (stereo not drawn) [CBK269921] | 89.6% |

| SMILES | viability at 28.5 h, 10 µM |
| --- | --- |
| CCOC(=O)CC1C(=O)NCCN1C/C=C/c1ccccc1 (stereo not drawn) [CBK269922] | 90.7% |
| COc1ccc(C(=O)Nc2ccccc2C(=O)N2CCOCC2)cc1Br [CBK269923] | 85.4% |
| CCOc1c(OC)cc(C#N)cc1C(=O)O [CBK269925] | 87.3% |
| CCOc1ccc(N2C(=O)CC(N3CCN(CCc4ccncc4)CC3)C2=O)cc1 (stereo not drawn) [CBK269930] | 106% |
| N#Cc1ccc(NC(=O)CSc2cnn[nH]2)cc1 [CBK269931] | 87.7% |
| Cc1nn(Cc2cccc3ccccc23)c(C)c1NC(=O)c1ccccn1 [CBK269936] | 105% |
| COc1ccc(Cl)cc1NS(=O)(=O)N1CCOCC1 [CBK269937] | 93% |
| O=C(NCCCn1ccnc1)c1cccnc1-c1nc2ccccc2s1 [CBK269939] | 90.5% |
| CC(C)(Oc1ccc(Cl)cc1)C(=O)Nc1ccc(CN2CCOCC2)cc1 [CBK269940] | 89.1% |
| O=C(O)CCCn1cc(NC(=O)c2c(F)cccc2F)cn1 [CBK269941] | 86.6% |
| CC(Oc1ccc(S(=O)(=O)N2CCN(C)CC2)cc1)C(=O)NC1CCCCC1 (stereo not drawn) [CBK269943] | 97.9% |
| O=C(NCCCN1CCOCC1)C1CCCN1S(=O)(=O)c1ccc(Cl)cc1 (stereo not drawn) [CBK269944] | 92.1% |
| Cc1cc(NS(=O)(=O)N2CCCCC2)no1 [CBK269947] | 100% |
| O=C(Nc1ccccc1N1CCN(C(=O)c2ccccc2)CC1)c1cccnc1 [CBK269948] | 100% |
| COc1ccccc1-c1nnc(SCc2cccc(C(=O)O)c2)[nH]1 [CBK269952] | 85.3% |
| O=C(O)CC1C(=O)NCCN1Cc1cccc(C(F)(F)F)c1 (stereo not drawn) [CBK269958] | 91.1% |
| Cc1cccc(OC(C)C(=O)Nc2ccccc2C(=O)N2CCCCC2)c1 (stereo not drawn) [CBK269960] | 85.4% |
| c1ccc(-c2nnc(CSc3nnc(-c4ccncc4)[nH]3)o2)cc1 [CBK269962] | 94.9% |
| O=C(Nc1cccnc1)c1ccc(NC(=O)C2OCCc3ccccc32)cc1 (stereo not drawn) [CBK269963] | 86.6% |
| NC(CCc1nc2ccccc2[nH]1)c1nc2ccccc2[nH]1 (stereo not drawn) [CBK269970] | 96.2% |
| COc1ccccc1NC(=O)Cn1nc(-c2ccc(C)cc2)ccc1=O [CBK269974] | 93.1% |
| O=C(COc1ccc2c(c1)OCO2)N1CCN(Cc2ccccc2)CC1 [CBK269977] | 84.8% |
| CC1(C)CC(=O)C2=C(C1)N=C(Nc1nc3ccccc3o1)NC2c1ccccn1 (stereo not drawn) [CBK269978] | 88.8% |

| SMILES | viability at 28.5 h, 10 µM |
| --- | --- |
| O=C(O)Cc1ccc(NS(=O)(=O)c2ccc(F)cc2)cc1 [CBK269981] | 94.2% |
| Nc1cc(=O)[nH]c(=O)n1CCc1ccccc1 [CBK269984] | 86% |
| COc1ccc(CN2CCNC(=O)C2CC(=O)O)cc1OC (stereo not drawn) [CBK269991] | 102% |
| COc1ccc(C)c(NC(=O)NCCc2c[nH]cn2)c1 [CBK269992] | 88.8% |
| O=C(Nc1ccc(Cl)cc1C(=O)O)c1ccccc1 [CBK269993] | 87.5% |
| CCOc1ccc(Cl)cc1S(=O)(=O)NCCO [CBK269996] | 94% |
| COc1ccc(Cl)cc1S(=O)(=O)N1CCC(C(=O)NCCO)CC1 [CBK270002] | 84% |
| c1ccc(-c2nnc(SCc3nnc(-c4ccccc4)o3)[nH]2)cc1 [CBK270003] | 104% |
| CCOc1ccccc1NC(=O)CSc1c[nH]nn1 [CBK270005] | 83.3% |
| O=C(Nc1ccccc1N1CCOCC1)c1cccc(OCc2ccccc2)c1 [CBK270011] | 104% |
| COc1cc(NC(=O)CC2NC3CCCCC3NC2=O)cc(OC)c1OC (stereo not drawn) [CBK270012] | 84.5% |
| COc1cc(CNCCO)ccc1OCc1cccc(Cl)c1 [CBK270013C] | 94.5% |
| O=C(Nc1ccc(S(=O)(=O)NCCN2CCOCC2)cc1)N1CCCC1 [CBK270015] | 89.8% |
| O=C(Nc1ccc(Cl)c(C(=O)O)c1)c1cccc(-n2cnnc2)c1 [CBK270016] | 86.5% |
| Cc1nnc(SCc2cc(=O)[nH]c(N3CCN(c4ccccc4F)CC3)n2)s1 [CBK270017] | 97.8% |
| COc1ccc(C(=O)NCCCc2nc3ccccc3[nH]2)cc1OC [CBK270018] | 101% |
| COc1cccc(NC(=O)NCCc2ccncc2)c1 [CBK270022] | 90.3% |
| CC1(C)CC(=O)C2=C(C1)NC(Nc1nc3ccccc3s1)=NC2c1cccnc1 (stereo not drawn) [CBK270025] | 99.4% |
| Cc1cc(S(=O)(=O)N2CCCC2)ccc1OCC(=O)NCc1ccccn1 [CBK270027] | 96% |
| Cc1ccc(NC(=O)CN2C(=O)c3ccccc3C2=O)c(O)c1 [CBK270028] | 88.2% |
| Nc1nc(/C=C/c2cccs2)nc(-c2ccccc2O)n1 [CBK270033] | 105% |
| O=C(Nc1ccc(N2CCN(C(=O)c3ccco3)CC2)cc1)c1cccnc1 [CBK270034] | 102% |
| Cn1c(=O)[nH]c(=O)c2c1nc(CN1CCOCC1)n2Cc1ccc(F)cc1 [CBK270040] | 99.2% |

Same assay, conditions: human, hela cells, % viability, bulk resorufin, single well

| SMILES | viability at 28.5 h, 10 µM |
| --- | --- |
| CSc1nnc(C(N)Cc2c[nH]c3ccccc23)o1 (stereo not drawn) [CBK269950C] | 89.8% |
